Patent US20210128596A1, “COMPOSITIONS AND METHODS FOR TREATING SEPTIC CARDIOMYOPATHY” (UNIVERSITY OF PENNSYLVANIA, priority 2017, published 2021)

Columns and labels:
[1] = tested on: C57BL/6 mice; test: Echocardiography after cecal ligation and puncture (CLP) or sham surgery; format: in vivo, mouse; set-up: LVID; d / EF / FS / LV Mass / LV Mass (Corrected) / LV Vol; d / IVS; d: unit not given here
Experimental: Mice were either sham treated or subjected to cecal ligation puncture (CLP). SDG was administered either 2 hours prior to CLP or 6 hours following CLP. Echocardiograms from each group of mice was collected (FIG. 2A) and ejection fraction (EF, left) and fractional shortening (FS, right) was determined.
Animal care, cecal ligation and puncture procedure and echocardiography—Animal protocols were approved by the Temple University Institutional Animal Care and Use Committee and were carried out in accordance with the NIH guidelines for the care and use of laboratory animals. Wild type (WT) 8-12 week old C57BL/6 mice were purchased from Jackson labs. Cecal ligation and puncture (CLP) was performed as previously described. Mice were anesthetized with 3.5% inhaled isofluorane. Under aseptic conditions, a 1 to 2 cm midline laparotomy was performed and exposure of the cecum with adjoining intestine. The cecum was tightly ligated at its base below the ileo-cecal valve at a distance of lcm and was punctured twice with a 19-gauge needle. The length of the ligated cecum was defined as the distance from the distal end of cecum to ligation point, which affects the degree of disease severity. Fecal material was extruded from the punctured cecum, and it was returned to the peritoneal cavity. The peritoneum and the skin were closed with three sutures. The mice were resuscitated by injecting subcutaneously lml of pre-warmed 0.9% saline solution to induce the hyperdynamic phase of sepsis and for post-operative analgesia the mice received subcutaneously buprenorphine (0.05 mg·kg body weight). Mice received a single intraperitoneal injection of LGM2605 (100 mg/kg i.p.) that was administrated either 2 h prior to CLP or 6 h post CLP. At 12 h post CLP, two-dimensional echocardiography was performed on anesthetized mice (1.5% inhaled isoflurane) using a VisualSonics Vevo 2100 machine. Echocardiographic images were recorded in a digital format. A single observer blinded to the respective treatments of mice analyzed short-axis m-mode images by LV trace. The number of mice used for each experiment are mentioned in the figure legends.

[2] = tested on: AC16 cells; test: cAMP levels in AC16 cells; format: cell-based, human
Experimental: AC16 cells were either left unstimulated or stimulated with either forskolin or isoproterenol for 12 hours and then treated with SDG, Liposaccharide (LPS) or both.
Cell culture—A human ventricular cardiomyocyte-derived cell line, designated AC-16, was used for some in vitro experiments. Cells were maintained in Dulbecco's modified Eagle's medium-nutrient mixture F-12 (DMEM-F-12; Invitrogen, Carlsbad, Calif.).

[3] = tested on: MCU and MICU1; test: MCU and MICU1 mRNA and protein levels after LPS; format: in vivo, mouse; conditions: LPS with SDG
Experimental: Mice were either sham treated or treated with LPS in with or without SDG (n=3 for each group) and the levels of MCU and MICU1 mRNAs were measured in quantitative PCR while the levels of protein were assessed through western blot.
RNA purification and gene expression analysis—Total RNA was purified from AC16 cells or hearts using the TRIzol reagent according to the instructions of the manufacturer (Invitrogen). DNase-treated RNA was used for cDNA synthesis using the ProtoScript II First Strand cDNA Synthesis Kit (New England Biolabs). Quantitative real-time PCR was performed with the Sybr Select Master Mix (Applied Biosystems). Incorporation of the SYBR green dye into the PCR products was monitored with the Applied Biosystems StepOnePlus Real-Time PCR System. Samples were normalized against mouse 36B4 or human rps13 RNA.
Protein purification and analysis—Isolated heart tissue or AC16 cells were homogenized in radioimmune precipitation assay buffer containing protease and phosphatase inhibitors (Pierce Protease and Phosphatase Inhibitor Mini Tablets, Thermo Scientific). 30-50 μg of total protein extract was applied to SDS-PAGE and transferred onto nitrocellulose membranes.

[4] = CLP + LGM2605 (6 hr), 100 mg/kg i.p. 6 h post CLP, echo 12 h post CLP
[5] = CLP + LGM2605 (−2 hr), 100 mg/kg i.p. 2 h prior to CLP, echo 12 h post CLP
[6] = Sham + LGM2605 (6 hr), 100 mg/kg i.p., echo 12 h post-surgery

In the case of COc1cc(C[C@@H](CO[C@@H]2O[C@H](CO)[C@@H](O)[C@H](O)[C@H]2O)[C@H](CO[C@@H]2O[C@H](CO)[C@@H](O)[C@H](O)[C@H]2O)Cc2ccc(O)c(OC)c2)ccc1O [LGM2605, secoisolariciresinol diglucoside], the EF [1, 4] is reported as 72.7, the FS [1, 4] is reported as 41.3 and the “IVS; d” value [1, 4] is reported as 1.4. The “IVS; s” value [1, 4] was 1.8, the “LV Mass” value [1, 4] was 129.2 and the “LV Mass (Corrected)” value [1, 4] was 103.3. The “LV Vol; d” value [1, 4] was 30.2, the “LV Vol; s” value [1, 4] was 8.4 and the “LVID; d” value [1, 4] was 2.8. For the same compound, the “LVID; s” value [1, 4] was 1.6, the “LVPW; d” value [1, 4] was 1.1 and the “LVPW; s” value [1, 4] was 1.6. The EF [1, 5] was 71.7, the FS [1, 5] was 39.3 and the “IVS; d” value [1, 5] was 1.3. For the same compound, the “IVS; s” value [1, 5] was 1.6, the “LV Mass” value [1, 5] was 97.2 and the “LV Mass (Corrected)” value [1, 5] was 77.8. The “LV Vol; d” value [1, 5] was 18.6, the “LV Vol; s” value [1, 5] was 5.3 and the “LVID; d” value [1, 5] was 2.3. The “LVID; s” value [1, 5] was 1.4, the “LVPW; d” value [1, 5] was 1.1 and the “LVPW; s” value [1, 5] was 1.5. The CLP-mediated cardiac dysfunction ([1]; LGM2605 100 mg/kg i.p. 2 h prior to CLP or 6 h post-CLP) was “prevented CLP-mediated cardiac dysfunction”, the cardiac fractional shortening ([1]; SDG 100 mg/kg body weight, i.p., 6 hours post-CLP surgery) was “increased cardiac fractional shortening” and the “ejection fraction (EF) and fractional shortening (FS)” value ([1]; SDG 2 hours prior to CLP or 6 hours following CLP) was “restores EF and to pre-CLP levels”. For the same compound, the EF [1, 6] was 66.7, the FS [1, 6] was 36.4 and the “IVS; d” value [1, 6] was 1.1. The “IVS; s” value [1, 6] was 1.5, the “LV Mass” value [1, 6] was 146.7 and the “LV Mass (Corrected)” value [1, 6] was 117.4. For the same compound, the “LV Vol; d” value [1, 6] was 55.4, the “LV Vol; s” value [1, 6] was 17.9 and the “LVID; d” value [1, 6] was 3.6. The “LVID; s” value [1, 6] was 2.3, the “LVPW; d” value [1, 6] was 1.0 and the “LVPW; s” value [1, 6] was 1.4. For the same compound, the systolic function ([1]; septic mice treated with LGM2605) was “normal systolic function”, the cAMP levels ([2]; SDG in the presence of LPS) was “this increase was abolished in the presence of LPS” and the cAMP levels ([2]; in the presence of forskolin or isoproterenol) was “appears to be insignificant”. The cAMP levels ([2]; non-stimulated, 12 hours) was “increased cAMP levels”, the “MCU and MICU1 mRNA levels” value [3] was “restored mRNA expression” and the “MCU protein level (western blot)” value [3] was “reverses the LPS-mediated decrease of MCU protein level”. For the same compound, the “MICU1 protein level (western blot)” value [3] was “increases MICU1 protein level”.
